In BindingDB's records for doi:10.3109/14756360903213481 (Brno University of Technology, 2010):

Legend:
[1] = molecular target: Carboxylic ester hydrolase (Equus caballus, UniProt Q9N1N9); assay: Acetylcholinesterase Inhibition Assay; settings: pH 8; 30 °C
Procedure: (§1) The assay was carried out according to the Ellman method [Ellman et al., Biochem. Pharmacol., 7:88-95], optimized for 96-well microplates using a Tecan Sunrise™ absorbance reader. […] For the blank, 50 μL of 0.26 U mL^−1 AChE was replaced by the same volume of 0.1 M phosphate buffer pH 8.0. In a typical assay, solutions of AChE, DTNB, and the compound to be tested, as well as the phosphate buffer, were mixed and incubated for 30 min at 30°C. Next, the reaction was started by the addition of ATCI solution. […] Reaction velocities were determined from the slopes of the linear portions of the graphs of time versus concentration of 5-thio-2-nitrobenzoate. All assays were done in triplicate.

[2] = molecular target: Acetylcholinesterase (Electrophorus electricus, UniProt O42275); assay: Acetylcholinesterase Inhibition Assay; settings: pH 8; 30 °C
Sequence of Acetylcholinesterase (O42275 whole entry): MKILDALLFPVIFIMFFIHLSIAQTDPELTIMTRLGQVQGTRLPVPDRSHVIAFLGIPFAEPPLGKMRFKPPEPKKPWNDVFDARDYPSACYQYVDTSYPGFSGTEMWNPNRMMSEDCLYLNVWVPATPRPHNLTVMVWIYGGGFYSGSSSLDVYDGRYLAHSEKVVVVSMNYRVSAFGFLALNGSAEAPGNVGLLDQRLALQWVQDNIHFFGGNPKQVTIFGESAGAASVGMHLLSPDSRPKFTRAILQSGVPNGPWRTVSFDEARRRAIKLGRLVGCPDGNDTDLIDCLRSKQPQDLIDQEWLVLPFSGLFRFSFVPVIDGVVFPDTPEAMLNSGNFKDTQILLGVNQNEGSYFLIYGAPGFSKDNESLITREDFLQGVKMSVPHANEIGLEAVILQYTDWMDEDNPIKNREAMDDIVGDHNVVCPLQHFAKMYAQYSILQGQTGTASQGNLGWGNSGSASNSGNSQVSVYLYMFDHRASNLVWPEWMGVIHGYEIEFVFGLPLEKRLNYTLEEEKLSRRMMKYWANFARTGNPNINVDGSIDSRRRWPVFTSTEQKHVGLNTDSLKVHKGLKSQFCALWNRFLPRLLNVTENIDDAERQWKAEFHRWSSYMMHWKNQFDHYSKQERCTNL
Procedure: as §1

Sequence of Carboxylic ester hydrolase (Q9N1N9 whole entry): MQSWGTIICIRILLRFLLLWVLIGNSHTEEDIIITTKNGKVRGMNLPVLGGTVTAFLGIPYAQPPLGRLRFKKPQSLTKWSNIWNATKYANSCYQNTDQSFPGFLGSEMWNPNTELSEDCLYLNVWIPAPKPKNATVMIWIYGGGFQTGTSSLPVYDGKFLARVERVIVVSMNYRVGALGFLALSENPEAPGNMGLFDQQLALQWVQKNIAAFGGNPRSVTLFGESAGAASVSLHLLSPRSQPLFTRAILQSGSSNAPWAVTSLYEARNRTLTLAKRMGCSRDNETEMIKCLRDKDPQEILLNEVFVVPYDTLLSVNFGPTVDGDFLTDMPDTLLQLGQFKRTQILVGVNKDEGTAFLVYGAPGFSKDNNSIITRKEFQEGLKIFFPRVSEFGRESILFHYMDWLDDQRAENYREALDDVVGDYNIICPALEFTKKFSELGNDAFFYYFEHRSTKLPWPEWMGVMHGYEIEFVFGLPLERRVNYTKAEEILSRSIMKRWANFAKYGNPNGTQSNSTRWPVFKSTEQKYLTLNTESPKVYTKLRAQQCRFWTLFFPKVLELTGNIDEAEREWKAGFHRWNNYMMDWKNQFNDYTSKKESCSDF

SMILES | IC50 [1] | IC50 [2]
O=C1C(Cc2ccc(O)cc2)=C(Cc2ccc(O)cc2)C(=O)C1(c1ccc(O)cc1)C1(c2ccc(O)cc2)C(=O)C(Cc2ccc(O)cc2)=C(Cc2ccc(O)cc2)C1=O [Nostotrebin 6] | 6.8 µM | 5.5 µM
COc1ccc2c3c1O[C@H]1C[C@@H](O)C=C[C@@]31CCN(C)C2 [galantamine] | 23.3 µM | 
